Where a name gives a salt, the structure may show the parent alone.
Molecular target: catalytic domain of human PARP14 (Homo sapiens (Human), UniProt Q460N5)
Experiment: Enzymatic assay for inhibition of PARP14 (DELFIA, auto-modification with biotin-NAD)
Assay type: biochemical
Details: auto-modification of PARP14 by biotin-NAD, 50 nM PARP14, 3 μM biotin-NAD
Procedure: An N-terminal His-TEV fusion tag was used to purify the protein from cell lysates. The His-TEV tag was left on the protein for use in the enzymatic assay.
Enzymatic inhibition of PARP14 was measured using a dissociation-enhanced lanthanide fluorescence immunoassay (DELFIA) monitoring the auto-modification of PARP14 by biotinylated nicotinamide adenine dinucleotide (biotin-NAD). 1 μL of a dose response curve of each test compound was spotted in 384-well nickel-coated white microplates (Thermo) using a Mosquito (TTP Labtech). Reactions were performed in a 50 μL volume by adding 40 μL of PARP14 in assay buffer (20 mM HEPES pH==8, 100 mM NaCl, 0.1% bovine serum albumin, 2 mM DTT and 0.002%0 Tween20), incubating with test compound at 25° C. for 30 min, then adding 10 μL of biotin-NAD (Biolog). The final concentrations of PARP14 and biotin-NAD are 50 nM and 3 μM, respectively. Reactions proceeded at 25° C. for 3 h, then were quenched with 5 μL of 10 mM unmodified nicotinamide adenine dinucleotide (Sigma-Aldrich). The quenched reactions were washed 3 times with 100 μL of TBST wash buffer (50 mM Tris-HCl, 150 mM NaCl and 0.1% Tween20). Next, to the washed and dried plate was added 25 μL of DELFIA Europium-N1 streptavidin (Perkin Elmer) diluted in DELFIA assay buffer (Perkin Elmer). After a 30 min incubation at 25° C., the plate was washed 5 times with TBST wash buffer. Finally, 25 μL of DELFIA enhancement solution was added. After a 5 min incubation the plate was read on an Envision platereader equipped with a LANCE/DELFIA top mirror (Perkin Elmer) using excitation of 340 nm and emission of 615 nm to measure the amount of Europium present in each well, informing on the amount of biotin-NAD that was transferred in the automodification reaction.
[formula] where ex615cmpd is the emission from the compound treated well, ex615min is the emission from the rucaparib treated positive control well and ex615max is the emission from the DMSO treated negative control well.
The % inhibition values were plotted as a function of compound concentration and the following 4-parameter fit was applied to derive the IC50 values:
[formula] where top and bottom are normally allowed to float, but may be fixed at 100 or 0 respectively in a 3-parameter fit. The Hill Coefficient is normally allowed to float but may also be fixed at 1 in a 3-parameter fit. Y is the % inhibition and X is the compound concentration.

catalytic domain of human PARP14, sequence (Q460N5 1611-1801): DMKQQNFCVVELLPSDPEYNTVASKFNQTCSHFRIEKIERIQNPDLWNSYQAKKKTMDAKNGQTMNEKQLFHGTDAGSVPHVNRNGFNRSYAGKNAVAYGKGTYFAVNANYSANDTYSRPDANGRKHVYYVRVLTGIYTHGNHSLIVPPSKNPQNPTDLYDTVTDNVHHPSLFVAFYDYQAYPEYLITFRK

| Structure (SMILES) | IC50 [µM] |
| --- | --- |
| Cc1cccc2c(=O)[nH]c(CS[C@H]3CCC[C@H](N)CC3)nc12 (relative stereo) [Example 54, 2-(((trans-4-Aminocycloheptyl)thio)methyl)-8-methylquinazolin-4(3H)-one Trifluoroacetate] | 1 to 10 |
| Cc1cccc2c(=O)[nH]c(CS[C@H]3CCC[C@@H](N)CC3)nc12 (relative stereo) [Example 55, 2-(((cis-4-Aminocycloheptyl)thio)methyl)-8-methylquinazolin-4(3H)-one Trifluoroacetate] | 1 to 10 |
| Cc1cccc2c(=O)[nH]c(CS[C@H]3CCC[C@H](CO)C3)nc12 (relative stereo) [Example 70, 2-(((trans-3-(Hydroxymethyl)cyclohexyl)thio)methyl)-8-methylquinazolin-4(3H)-one] | 1 to 10 |
| Cc1cccc2c(=O)[nH]c(CS[C@H]3CCC[C@@H](CO)C3)nc12 (relative stereo) [Example 71, 2-(((cis-3-(Hydroxymethyl)cyclohexyl)thio)methyl)-8-methylquinazolin-4(3H)-one] | 1 to 10 |
| Cc1cccc2c(=O)[nH]c(CS[C@@H]3CCC[C@H](CN(C)C)C3)nc12 (relative stereo) [Example 72, 2-((((cis)-3-((Dimethylamino)methyl)cyclohexyl)thio)methyl)-8-methyl quinazolin-4(3H)-one Trifluoroacetate] | > 10 |
| Cc1cccc2c(=O)[nH]c(CS[C@@H]3CC[C@@H](CCN)C3)nc12 (relative stereo) [Example 183, 2-((((trans)-3-(2-aminoethyl)cyclopentyl)thio)methyl)-8-methylquinazolin-4(3H)-one] | 1 to 10 |
| O=c1[nH]c(CS[C@H]2CCNC[C@@H]2F)nc2cc(NC3CCCC3)cc(F)c12 (relative stereo) [Example 210, 7-(Cyclopentylamino)-5-fluoro-2-(((trans-3-fluoropiperidin-4-yl)thio)methyl)quinazolin-4(3H)-one Hydrochloride] | < 1 |
| O=c1[nH]c(CS[C@H]2CCNC[C@H]2F)nc2cc(NC3CCCC3)cc(F)c12 (relative stereo) [Example 212, 7-(Cyclopentylamino)-5-fluoro-2-((((cis)-3-fluoropiperidin-4-yl)thio)methyl)quinazolin-4(3H)-one Hydrochloride] | < 1 |
| Cc1cccc2c(=O)[nH]c(CS[C@H]3CC[C@@H](CO)OC3)nc12 (relative stereo) [Example 221, 2-(((Cis-6-(Hydroxymethyl)tetrahydro-2H-pyran-3-yl)thio)methyl)-8-methylquinazolin-4(3H)-one] | 1 to 10 |
| O=c1[nH]c(CS[C@H]2CCNC[C@@H]2C(F)(F)F)nc2cc(NC3CCCC3)cc(F)c12 (relative stereo) [Example 222, 7-(Cyclopentylamino)-5-fluoro-2-(((trans-3-(trifluoromethyl)piperidin-4-yl)thio)methyl)quinazolin-4(3H)-one Hydrochloride] | < 1 |
| O=c1[nH]c(CS[C@H]2CNC[C@H]2F)nc2cc(NC3CCCC3)cc(F)c12 (relative stereo) [Example 223, 7-(Cyclopentylamino)-5-fluoro-2-(((cis-4-fluoropyrrolidin-3-yl)thio)methyl)quinazolin-4(3H)-one Trifluoroacetate] | < 1 |
| O=c1[nH]c(CS[C@H]2CCN[C@H](C(F)(F)F)C2)nc2cc(NC3CCCC3)cc(F)c12 (relative stereo) [Example 227, 7-(Cyclopentylamino)-5-fluoro-2-(((trans-2-(trifluoromethyl)piperidin-4-yl)thio)methyl)quinazolin-4(3H)-one bis Trifluoroacetate] | 1 to 10 |
| O=c1[nH]c(CS[C@H]2CCN[C@@H](C(F)(F)F)C2)nc2cc(NC3CCCC3)cc(F)c12 (relative stereo) [Example 228, 7-(Cyclopentylamino)-5-fluoro-2-(((cis-2-(trifluoromethyl)piperidin-4-yl)thio)methyl)quinazolin-4(3H)-one hydrochloride] | 1 to 10 |
| O=c1[nH]c(CS[C@H]2CCNC[C@H](F)C2)nc2cc(NC3CCCC3)cc(F)c12 (relative stereo) [Example 240, 7-(Cyclopentylamino)-5-fluoro-2-(((trans-6-fluoroazepan-4-yl)thio)methyl)quinazolin-4(3H)-one] | < 1 |
| O=c1[nH]c(CS[C@H]2CCNC[C@@H](F)C2)nc2cc(NC3CCCC3)cc(F)c12 (relative stereo) [Example 241, 7-(Cyclopentylamino)-5-fluoro-2-(((cis-6-fluoroazepan-4-yl)thio)methyl)quinazolin-4(3H)-one] | < 1 |
| NC[C@H]1CC[C@@H](SCc2nc3cc(NC4CCCC4)cc(F)c3c(=O)[nH]2)CO1 (relative stereo) [Example 242, 2-((((cis)-6-(Aminomethyl)tetrahydro-2H-pyran-3-yl)thio)methyl)-7-(cyclopentylamino)-5-fluoroquinazolin-4(3H)-one bis Hydrochloride] | 1 to 10 |

| Structure (SMILES) | IC50 [µM] |
| --- | --- |
| Cc1cccc2c(=O)[nH]c(CS[C@@H]3CCC[C@H](CO)O3)nc12 (relative stereo) [Example 260, 2-(((Cis-6-(hydroxymethyl)tetrahydro-2H-pyran-2-yl)thio)methyl)-8-methylquinazolin-4(3H)-one] | > 10 |
| O=c1[nH]c(CS[C@@H]2CCNC[C@H]2F)nc2cc(OCC3CC3)cc(F)c12 (relative stereo) [Example 297, 7-(Cyclopropylmethoxy)-5-fluoro-2-(((trans-3-fluoropiperidin-4-yl)thio)methyl)quinazolin-4(3H)-one hydrochloride] | 1 to 10 |
| O=c1[nH]c(CS[C@H]2CCNC[C@H]2F)nc2cc(NCC3CCC3)c(F)cc12 (relative stereo) [Example 303, 7-((Cyclobutylmethyl)amino)-6-fluoro-2-(((cis-3-fluoropiperidin-4-yl)thio)methyl)quinazolin-4(3H)-one hydrochloride] | < 1 |
| CN1CC[C@H](COc2cc(F)c3c(=O)[nH]c(CSC4CCOCC4)nc3c2)[C@@H](F)C1 (relative stereo) [Example 326, 5-Fluoro-7-(((trans)-3-fluoro-1-methylpiperidin-4-yl)methoxy)-2-(((tetrahydro-2H-pyran-4-yl)thio)methyl)quinazolin-4(3H)-one] | < 1 |
| CN1CC[C@H](COc2cc(F)c3c(=O)[nH]c(CS[C@H]4CC[C@H](O)CC4)nc3c2)[C@@H](F)C1 (relative stereo) [Example 334, 5-Fluoro-7-(((trans)-3-fluoro-1-methylpiperidin-4-yl)methoxy)-2-((((trans)-4-hydroxycyclohexyl)thio)methyl)quinazolin-4(3H)-one trifluoroacetic acid] | < 1 |
| O=c1[nH]c(CS[C@H]2CC[C@H](O)CC2)nc2cc(N[C@H]3CCC[C@@H]3F)cc(F)c12 (relative stereo) [Example 340] | < 1 |
| O=c1[nH]c(CS[C@H]2CC[C@H](O)CC2)nc2cc(N[C@@H]3CCC[C@@H]3F)cc(F)c12 (relative stereo) [Example 341] | < 1 |
| O=c1[nH]c(CSC2CCOCC2)nc2cc(OC[C@H]3CCNC[C@@H]3F)cc(F)c12 (relative stereo) [Example 352] | 1 to 10 |
| O=c1[nH]c(CSC2CCOCC2)nc2cc(OC[C@H]3CCC[C@H]3O)cc(F)c12 (relative stereo) [Example 359] | < 1 |
| O=c1[nH]c(CSC2CCOCC2)nc2cc(OC[C@H]3CNC[C@H]3F)cc(F)c12 (relative stereo) [Example 371] | < 1 |
| CN1C[C@H](COc2cc(F)c3c(=O)[nH]c(CSC4CCOCC4)nc3c2)[C@H](F)C1 (relative stereo) [Example 372] | < 1 |
| CN1CC[C@@H](COc2cc(F)c3c(=O)[nH]c(CSC4CCOCC4)nc3c2)[C@@H](F)C1 (relative stereo) [Example 388] | < 1 |
| CN1CC[C@H](CNc2cc3nc(CSC4CCOCC4)[nH]c(=O)c3c(F)c2F)[C@H](F)C1 (relative stereo) [Example 408] | 1 to 10 |
| CN1CC[C@H](SCc2nc3cc(NC4CCCC4)cc(F)c3c(=O)[nH]2)[C@@H](F)C1 (relative stereo) [Example 412] | < 1 |
| CN1CC[C@@H](SCc2nc3cc(NC4CCCC4)cc(F)c3c(=O)[nH]2)[C@@H](F)C1 (relative stereo) [Example 413] | < 1 |
| O=c1[nH]c(CS[C@@H]2CCNCC2F)nc2cc(OCC3CC3)cc(F)c12 (stereo in doubt) [Example 295, 7-(Cyclopropylmethoxy)-5-fluoro-2-(((cis-3-fluoropiperidin-4-yl)thio)methyl)quinazolin-4(3H)-one hydrochloride] | < 1 |
